{"source": "the PolyMetriX glass transition set", "note": "± gives the standard deviation of the reports."}
{"units": {"glass transition temperature": "°C"}}
{"smiles": "*CC(*)(C)C(=O)OCCc1ccccc1", "note": "(repeat unit) [Poly(2-phenylethyl methacrylate)]", "glass transition temperature": "37.42 ± 16"}
{"smiles": "*O[Si](C)(C)c1ccc([Si](C)(C)O[SiH](*)CCC(F)(F)F)cc1", "note": "(repeat unit)", "glass transition temperature": -37.00}
{"smiles": "*Oc1cccc(NC(=O)CCCCCCC(=O)Nc2ccc(*)cc2)c1", "note": "(repeat unit)", "glass transition temperature": 140.00}
{"smiles": "*c1ccc(-c2ccc([Si](CCCC)(CCCC)[Si](*)(CCCC)CCCC)s2)s1", "note": "(repeat unit)", "glass transition temperature": -20.00}
{"smiles": "*c1nnc(-c2ccc(Oc3ccc(C(c4ccc(Oc5ccc(*)c6ccccc56)cc4)(C(F)(F)F)C(F)(F)F)cc3)c3ccccc23)o1", "note": "(repeat unit)", "glass transition temperature": 220.00}
{"smiles": "*c1ccc2c(c1)C(=O)N(c1ccc(S(=O)(=O)c3ccc(N4C(=O)c5ccc(C(*)(C(F)(F)F)C(F)(F)F)cc5C4=O)cc3)cc1)C2=O", "note": "(repeat unit)", "glass transition temperature": "336.50 ± 0.7"}
{"smiles": "*CC(*)c1ccccc1C", "note": "(repeat unit)", "glass transition temperature": 131.00}
{"smiles": "*Nc1ccc(-c2ccc(NC(=O)c3ccc(NC(=O)c4ccc([Si](C)(C)c5ccc(C(=O)Nc6ccc(C(*)=O)cc6)cc5)cc4)cc3)cc2)cc1", "note": "(repeat unit)", "glass transition temperature": 320.00}
{"smiles": "*Oc1ccc(OC(=O)c2ccc(-c3ccc(C(*)=O)cc3)cc2-c2ccccc2)cc1-c1ccccc1", "note": "(repeat unit)", "glass transition temperature": 148.00}
{"smiles": "*CC(*)(C)C(=O)OCCCCCCN1CCN(c2ccc(/N=N/c3ccc(C=C(C#N)C#N)cc3)cc2)CC1", "note": "(repeat unit)", "glass transition temperature": 83.00}
{"smiles": "*CC(*)c1cc(Br)ccc1OCCC(C)C", "note": "(repeat unit)", "glass transition temperature": 37.00}
{"smiles": "*CCCCCCCCCCCOC(=O)c1ccc2cc(C(=O)O*)ccc2c1", "note": "(repeat unit)", "glass transition temperature": 43.00}
{"smiles": "*Oc1c(C(C)C)cc(C(=O)c2cccc(C(=O)c3ccc(*)cc3)c2)cc1C(C)C", "note": "(repeat unit)", "glass transition temperature": 132.00}
{"smiles": "*c1ccc(Oc2ccc(-c3cc(-c4ccccc4)c4cc(C5(c6ccc7nc(*)cc(-c8ccccc8)c7c6)c6ccccc6C(=O)c6ccccc65)ccc4n3)cc2)cc1", "note": "(repeat unit)", "glass transition temperature": 320.00}
{"smiles": "*CCCCCCCCCCOC(=O)CCCCCNC(=O)CCCCC(=O)NCCCCCC(=O)O*", "note": "(repeat unit)", "glass transition temperature": -12.00}
{"smiles": "*CC(C)(C)C1CC=C(*)CC1", "note": "(repeat unit)", "glass transition temperature": 77.00}
{"smiles": "*CCN(*)C(=O)C1CC1", "note": "(repeat unit)", "glass transition temperature": 77.00}
{"smiles": "*Oc1cccc(N(c2ccccc2)c2ccc(-c3ccc(N(c4ccc(/N=N/c5ccc([N+](=O)[O-])cc5)cc4)c4cccc(OC(=O)OCCOCCOC(*)=O)c4)cc3)cc2)c1", "note": "(repeat unit)", "glass transition temperature": 111.00}
{"smiles": "*O[Si](C)(C)O[Si](C)(C)O[Si](C)(C)O[Si](C)(C)O[Si](C)(C)OC(C)CCC(*)C", "note": "(repeat unit)", "glass transition temperature": -106.00}
{"smiles": "*C#Cc1ccccc1C#C[SiH](*)c1ccccc1", "note": "(repeat unit)", "glass transition temperature": 71.00}
{"smiles": "*Nc1cccc(NC(=O)CCCCC(*)=O)c1", "note": "(repeat unit)", "glass transition temperature": 114.2}
{"smiles": "*CC(*)C(=O)Oc1ccc(-c2ccccc2)cc1", "note": "(repeat unit)", "glass transition temperature": 110.00}
{"smiles": "*c1ccc(Oc2ccc(C(C)(C)c3ccc(Oc4ccc(N5C(=O)c6ccc(Oc7ccc8c(c7)C(=O)N(*)C8=O)cc6C5=O)cc4)cc3)cc2)cc1", "note": "(repeat unit)", "glass transition temperature": 227.50}
{"smiles": "*N(C)[Si](*)(C)C=C", "note": "(repeat unit)", "glass transition temperature": -20.00}
{"smiles": "*CC(*)C(=O)OCCCCCCCC", "note": "(repeat unit) [Poly(n-octyl acrylate) ]", "glass transition temperature": "-65 ± 0.6"}
{"smiles": "*CC(*)CCI", "note": "(repeat unit)", "glass transition temperature": 70.00}
{"smiles": "*c1ccc2c(c1)C(=O)N(c1ccc(Oc3ccc(N4C(=O)c5ccc(C(*)(C(F)(F)F)C(F)(F)F)cc5C4=O)cc3)c(O)c1)C2=O", "note": "(repeat unit)", "glass transition temperature": 292.00}
{"smiles": "*CC(O)COc1ccc(C(C)(C)c2ccc(OCC(O)COc3ccc(C4(c5ccc(O*)cc5)c5ccccc5-c5ccccc54)cc3)cc2)cc1", "note": "(repeat unit)", "glass transition temperature": 161.00}
{"smiles": "*c1ccc(C(=O)OCCCCCCOc2ccc(/C=C/C(=O)/C=C/c3ccc(OCCCCCCOC(=O)c4ccc(-c5nnc(*)o5)cc4)cc3)cc2)cc1", "note": "(repeat unit)", "glass transition temperature": 62.00}
{"smiles": "*CC(CO*)(CS(C)(=O)=O)CS(C)(=O)=O", "note": "(repeat unit)", "glass transition temperature": 126.00}
{"smiles": "*CC(*)(C#N)C(=O)OCC", "note": "(repeat unit)", "glass transition temperature": 115.00}
{"smiles": "*CCCCCCCCO*", "note": "(repeat unit) [Polyoxyoctamethylene ]", "glass transition temperature": "-70 ± 34"}
{"smiles": "*C(=O)Nc1ccc(S(=O)(=O)c2ccc(NC(=O)c3ccc4c(c3)C(=O)N(c3ccc(S(=O)(=O)c5ccc(N6C(=O)c7ccc(*)cc7C6=O)cc5)cc3)C4=O)cc2)cc1", "note": "(repeat unit)", "glass transition temperature": 307.00}
{"smiles": "*C(=O)Nc1cccc(NC(=O)c2ccc(-c3nc4cc(*)ccc4[nH]3)cc2)c1", "note": "(repeat unit)", "glass transition temperature": 325.00}
{"smiles": "*CC(=O)NC(C)C(=O)O*", "note": "(repeat unit)", "glass transition temperature": 54.60}
{"smiles": "*C(=O)c1ccc2c(c1)C(=O)N(c1ccc(Oc3ccc(C(=O)c4ccc5cc(C(=O)c6ccc(Oc7ccc(N8C(=O)c9ccc(*)cc9C8=O)cc7)cc6)ccc5c4)cc3)cc1)C2=O", "note": "(repeat unit)", "glass transition temperature": 246.00}
{"smiles": "*CCCCCCCNC(=O)N*", "note": "(repeat unit)", "glass transition temperature": 62.00}
{"smiles": "*CN1C(=O)c2ccc(C(c3ccc4c(c3)C(=O)N(Cc3nnc(-c5ccc(-c6nnc(*)o6)c(Oc6ccccc6)c5)o3)C4=O)(C(F)(F)F)C(F)(F)F)cc2C1=O", "note": "(repeat unit)", "glass transition temperature": 208.00}
{"smiles": "*CCN(CCOC(=O)c1ccc(C(=O)O*)cc1)c1ccc(C=C(C#N)C#N)cc1", "note": "(repeat unit)", "glass transition temperature": 127.00}
{"smiles": "*c1ccc(-c2nc3cc(-c4ccc5nc(-c6ccccc6)c(-c6ccc(-n7c(=O)c8cc9c(=O)n(*)c(=O)c9cc8c7=O)cc6)nc5c4)ccc3nc2-c2ccccc2)cc1", "note": "(repeat unit)", "glass transition temperature": 217.00}
{"smiles": "*/C=C(\\C#N)C(=O)Nc1cc(-c2ccc(O)c(NC(=O)/C(C#N)=C/c3ccc(/C=C/c4ccc(N(c5ccccc5)c5ccc(N(c6ccccc6)c6ccc(/C=C/c7ccc(*)s7)cc6)cc5)cc4)s3)c2)ccc1O", "note": "(repeat unit)", "glass transition temperature": 221.00}
{"smiles": "*CC(*)C(=O)Oc1ccc(C(=O)c2ccc(Cl)cc2)cc1", "note": "(repeat unit)", "glass transition temperature": 78.00}
{"smiles": "*CCOCCOCCOCCOCCOCCOCCOCCOCCOCCOC(=O)c1ccc(-c2ccc(-c3ccc(C(=O)O*)cc3)cc2)cc1", "note": "(repeat unit)", "glass transition temperature": 40.00}
{"smiles": "*CC(*)(C)C(=O)OCCCCCCOc1ccc(C(=O)Oc2ccc(C(=O)/C=C/c3c(C)c4ccccc4n3C)cc2)cc1", "note": "(repeat unit)", "glass transition temperature": 98.00}
{"smiles": "*Oc1ccc(-c2ccc(OC(=O)c3cc(OCCCc4ccccc4)c(C(*)=O)cc3OCCCc3ccccc3)cc2)cc1", "note": "(repeat unit)", "glass transition temperature": 72.00}
{"smiles": "*CC(*)C(=O)Nc1cccc(Cl)c1", "note": "(repeat unit)", "glass transition temperature": 70.00}
{"smiles": "*c1ccc(C(=O)c2ccc(-n3nc(-c4ccccc4)c4cc(Oc5ccc(C(C)(C)c6ccc(Oc7ccc8c(-c9ccccc9)nn(*)c(=O)c8c7)cc6)cc5)ccc4c3=O)cc2)cc1", "note": "(repeat unit)", "glass transition temperature": 195.00}
{"smiles": "*CC(*)c1ccc(Cl)c(Cl)c1", "note": "(repeat unit)", "glass transition temperature": 128.00}
{"smiles": "*c1ccc(Oc2ccccc2N2C(=O)c3ccc(Oc4ccc5c(c4)C(=O)N(*)C5=O)cc3C2=O)cc1", "note": "(repeat unit)", "glass transition temperature": 264.00}
{"smiles": "*O[Si](C)(C)O[Si](C)(C)O[Si](C)(C)O[Si](C)(C)O[Si](C)(C)Oc1c(*)c2ccccc2c2ccccc12", "note": "(repeat unit)", "glass transition temperature": -38.00}
{"smiles": "*Oc1ccc(C(C)(C)c2ccc(OC(=O)c3ccc(C(C)(CC)c4ccc(C(*)=O)cc4)cc3)cc2)cc1", "note": "(repeat unit)", "glass transition temperature": 211.00}
{"smiles": "*C(=O)c1ccc2c(c1)C(=O)N(c1ccc(S(=O)(=O)c3ccc(NC(=O)c4cccc(C(=O)Nc5ccc(S(=O)(=O)c6ccc(N7C(=O)c8ccc(*)cc8C7=O)cc6)cc5)c4)cc3)cc1)C2=O", "note": "(repeat unit)", "glass transition temperature": 226.00}
{"smiles": "*C(=O)Nc1cccc(NC(=O)c2ccc3c(c2)C(=O)N(c2ccc(S(=O)(=O)c4ccc(N5C(=O)c6ccc(*)cc6C5=O)cc4)cc2)C3=O)c1", "note": "(repeat unit)", "glass transition temperature": 311.00}
{"smiles": "*c1ccc(Oc2ccc(N3C(=O)c4ccc(Oc5ccc(C(=O)c6ccc(Oc7ccc8c(c7)C(=O)N(*)C8=O)cc6)cc5)cc4C3=O)cc2)cc1", "note": "(repeat unit)", "glass transition temperature": 210.00}
{"smiles": "*c1ccc(Oc2ccc(Oc3ccc(Oc4ccc(N5C(=O)c6ccc(Oc7ccc(Oc8ccc9c(c8)C(=O)N(*)C9=O)cc7)cc6C5=O)cc4)cc3)cc2)cc1", "note": "(repeat unit)", "glass transition temperature": 210.00}
{"smiles": "*c1cccc(NC(=O)CCCCCCCC(=O)Nc2cccc(S(*)(=O)=O)c2)c1", "note": "(repeat unit)", "glass transition temperature": 125.00}
{"smiles": "*c1ccc(C(=O)Nc2cccc(-n3c(=O)c4cc5c(=O)n(*)c(=O)c5cc4c3=O)c2)cc1", "note": "(repeat unit)", "glass transition temperature": 390.00}
{"smiles": "*CC(COc1ccc(-c2ccc(OC)cc2)cc1)O*", "note": "(repeat unit)", "glass transition temperature": 111.00}
{"smiles": "*CC1CC(*)C(OC(=O)CCCCCCCCCCOc2ccc(-c3ccc(C#N)cc3)cc2)C1", "note": "(repeat unit)", "glass transition temperature": 30.50}
{"smiles": "*c1cc(C(=O)OCCCCC)cc(N2C(=O)CC(C3Cc4ccccc4C4C(=O)N(*)C(=O)C43)C2=O)c1", "note": "(repeat unit)", "glass transition temperature": 219.00}
{"smiles": "*CC(*)C(=O)Oc1ccc(C#N)cc1", "note": "(repeat unit)", "glass transition temperature": 92.00}
{"smiles": "*CC(*)C(=O)OCCCOc1ccc(C(=O)OCCCC(F)(F)C(F)(F)C(F)(F)C(F)(F)C(F)(F)C(F)(F)F)cc1", "note": "(repeat unit)", "glass transition temperature": 17.00}
{"smiles": "*CC(F)(F)C(F)(F)C(F)(F)COC(=O)c1cccc(C(F)(F)C(F)(F)C(F)(F)C(F)(F)C(F)(F)c2cccc(C(=O)O*)c2)c1", "note": "(repeat unit)", "glass transition temperature": 29.00}
{"smiles": "*CCCCCCCCCCOC(=O)c1cccc(C(=O)O*)c1", "note": "(repeat unit)", "glass transition temperature": -22.50}
{"smiles": "*OC(COC(=O)c1ccc(-c2cc(CCCCCCCC)c(-c3ccc(C(*)=O)c(F)c3F)cc2CCCCCCCC)c(F)c1F)COc1ccc(/N=N/c2ccc(C#N)cc2)cc1", "note": "(repeat unit)", "glass transition temperature": 61.00}
